Source: ChEMBL document CHEMBL1201862, “PubChem BioAssay data set” (2004)
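Dose response: 5 concentrations. Exposure: 48 h. Format: 96-well plates. Endpoint: linear interpolation; highest concentration if not reached. Abbreviation: GI50, concentration required for 50% inhibition of growth.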 The source made the active and inactive calls. Rule as the data show it: active = GI50 up to about 1.1 µM and inactive = higher.

Tests used:
Assay in all cases: inhibition of tumour cell growth, NCI panel, 48 h
NCI/ADR-RES = tested on: NCI/ADR-RES
NCI-H23 = tested on: NCI-H23
T47D = tested on: T47D
OVCAR-5 = tested on: OVCAR-5
SK-OV-3 = tested on: SK-OV-3
SK-MEL-2 = tested on: SK-MEL-2
U-251 = tested on: U-251
SF-295 = tested on: SF-295
MCF7 = tested on: MCF7
MDA-MB-435 = tested on: MDA-MB-435
PC-3 = tested on: PC-3
786-0 = tested on: 786-0
NCI-H460 = tested on: NCI-H460
UACC-62 = tested on: UACC-62
HT-29 = tested on: HT-29
SF-268 = tested on: SF-268
MDA-MB-231 = tested on: MDA-MB-231
A549 = tested on: A549
COLO 205 = tested on: COLO 205
HL-60 = tested on: HL-60

Measured: GI50

Cc1cc(N2CCCCC2)nc2ccc(Cc3ccc4nc(N5CCCCC5)cc(C)c4c3)cc12
inactive: NCI/ADR-RES > 100 µM | NCI-H23 > 100 µM | T47D 60.7 µM | OVCAR-5 > 100 µM | SK-OV-3 > 100 µM | SK-MEL-2 > 100 µM | U-251 > 100 µM | SF-295 > 100 µM | MCF7 > 100 µM | MDA-MB-435 > 100 µM | PC-3 > 100 µM | 786-0 > 100 µM | NCI-H460 > 100 µM | UACC-62 > 100 µM | HT-29 23.6 µM | SF-268 > 100 µM | MDA-MB-231 > 100 µM | A549 > 100 µM | COLO 205 44.5 µM

O=c1c2c(sc3ccccc13)NCN(CCc1ccccc1)C2
inactive: NCI/ADR-RES 20.7 µM | NCI-H23 38.1 µM | OVCAR-5 81.5 µM | SK-OV-3 66.5 µM | SK-MEL-2 23.8 µM | U-251 36.8 µM | HL-60 > 100 µM | SF-295 20.7 µM | MCF7 56.6 µM | MDA-MB-435 35.1 µM | PC-3 39.3 µM | 786-0 29.7 µM | NCI-H460 32.7 µM | UACC-62 34.2 µM | HT-29 18.4 µM | MDA-MB-231 23.5 µM | A549 49 µM | COLO 205 18.1 µM

N[C@@H](Cc1ccc2oc3cc(=O)c4ccccc4c-3nc2c1)C(=O)O
inactive: NCI/ADR-RES > 100 µM | NCI-H23 13.4 µM | T47D > 100 µM | OVCAR-5 > 100 µM | SK-OV-3 > 100 µM | U-251 36.3 µM | HL-60 > 100 µM | SF-295 30.4 µM | MCF7 2.36 µM | MDA-MB-435 17 µM | 786-0 > 100 µM | NCI-H460 31.1 µM | UACC-62 27.4 µM | HT-29 31.5 µM | SF-268 > 100 µM | MDA-MB-231 > 100 µM | A549 40.2 µM | COLO 205 11.5 µM

O=C(/C=C/c1ccc2c(c1)OCO2)NCc1ccco1
inactive: NCI/ADR-RES > 100 µM | NCI-H23 > 100 µM | T47D 19.4 µM | OVCAR-5 > 100 µM | SK-OV-3 > 100 µM | SK-MEL-2 > 100 µM | U-251 > 100 µM | SF-295 > 100 µM | MCF7 39.7 µM | MDA-MB-435 > 100 µM | PC-3 > 100 µM | 786-0 > 100 µM | NCI-H460 > 100 µM | UACC-62 74.6 µM | HT-29 > 100 µM | MDA-MB-231 > 100 µM | A549 > 100 µM | COLO 205 > 100 µM

Fc1ccc(C2(CCCN3CCc4[nH]c5cc(F)ccc5c4C3)OCCO2)cc1
inactive: NCI/ADR-RES 20.7 µM | NCI-H23 16.2 µM | T47D 13.5 µM | OVCAR-5 2.89 µM | SK-OV-3 13.8 µM | U-251 11.9 µM | HL-60 10.5 µM | SF-295 13.9 µM | MCF7 10.6 µM | MDA-MB-435 13.5 µM | 786-0 13.9 µM | NCI-H460 10.4 µM | UACC-62 13.7 µM | HT-29 3.81 µM | SF-268 15.3 µM | MDA-MB-231 18.7 µM | A549 14.7 µM | COLO 205 8.75 µM

Cc1c(Cl)ccc2c(=O)c3cccc(CC(=O)O)c3oc12
inactive: NCI/ADR-RES > 100 µM | NCI-H23 > 100 µM | SK-MEL-2 > 100 µM | U-251 > 100 µM | HL-60 > 100 µM | SF-295 > 100 µM | MCF7 35.6 µM | MDA-MB-435 > 100 µM | PC-3 > 100 µM | 786-0 > 100 µM | NCI-H460 > 100 µM | HT-29 > 100 µM | SF-268 > 100 µM | MDA-MB-231 > 100 µM | A549 > 100 µM | COLO 205 > 100 µM

O=C(O)c1nc2ccc(C(F)(F)F)cc2nc1NCc1ccc(F)cc1
inactive: NCI/ADR-RES 35.5 µM | NCI-H23 24 µM | T47D 20.8 µM | OVCAR-5 22.4 µM | SK-OV-3 31.7 µM | SK-MEL-2 19.5 µM | U-251 16.7 µM | SF-295 23.5 µM | MCF7 22.9 µM | MDA-MB-435 > 100 µM | PC-3 26.5 µM | 786-0 14.9 µM | NCI-H460 19.4 µM | UACC-62 15.9 µM | MDA-MB-231 32.4 µM | A549 19.1 µM | COLO 205 21.5 µM

COc1c(C)c(C/C=C(\C)CCCCO)c(OC)c(OC)c1OC
inactive: NCI/ADR-RES > 100 µM | NCI-H23 > 100 µM | OVCAR-5 > 100 µM | SK-OV-3 > 100 µM | SK-MEL-2 > 100 µM | U-251 > 100 µM | SF-295 48.6 µM | MCF7 > 100 µM | MDA-MB-435 > 100 µM | PC-3 > 100 µM | 786-0 > 100 µM | NCI-H460 18 µM | UACC-62 > 100 µM | HT-29 > 100 µM | SF-268 > 100 µM | MDA-MB-231 > 100 µM | A549 23.7 µM | COLO 205 > 100 µM

C1CCCCC2(CCCCCCCCC3(CCC1)OCCO3)OCCO2
inactive: NCI/ADR-RES > 100 µM | NCI-H23 > 100 µM | T47D > 100 µM | OVCAR-5 > 100 µM | SK-OV-3 > 100 µM | SK-MEL-2 > 100 µM | U-251 > 100 µM | HL-60 > 100 µM | SF-295 > 100 µM | MCF7 > 100 µM | MDA-MB-435 > 100 µM | PC-3 > 100 µM | 786-0 > 100 µM | NCI-H460 > 100 µM | UACC-62 > 100 µM | HT-29 > 100 µM | SF-268 > 100 µM | A549 > 100 µM | COLO 205 > 100 µM

COc1ccc(C2c3cc4c(cc3OC(N3CCCCC3)C2C)OCO4)cc1 (stereo unspecified)
inactive: NCI/ADR-RES > 100 µM | NCI-H23 58.5 µM | T47D 71 µM | OVCAR-5 > 100 µM | SK-MEL-2 > 100 µM | SF-295 54.6 µM | MCF7 > 100 µM | MDA-MB-435 27 µM | PC-3 > 100 µM | 786-0 80.2 µM | NCI-H460 > 100 µM | UACC-62 > 100 µM | HT-29 > 100 µM | SF-268 > 100 µM | A549 85.1 µM | COLO 205 > 100 µM

N#CC1(C#N)NC(c2ccsc2)C(C#N)(C#N)NC1c1ccsc1 (stereo unspecified)
inactive: NCI/ADR-RES > 100 µM | NCI-H23 > 100 µM | OVCAR-5 > 100 µM | SK-OV-3 > 100 µM | SK-MEL-2 > 100 µM | U-251 > 100 µM | HL-60 > 100 µM | SF-295 > 100 µM | MCF7 > 100 µM | MDA-MB-435 > 100 µM | PC-3 > 100 µM | 786-0 > 100 µM | NCI-H460 > 100 µM | UACC-62 > 100 µM | HT-29 > 100 µM | SF-268 > 100 µM | MDA-MB-231 > 100 µM | A549 > 100 µM | COLO 205 > 100 µM
